Test results reported in patent US12304897B2, “15-PGDH inhibitors” (KYORIN PHARMACEUTICAL CO., LTD., priority 2019, dated 2025).

Molecular target: recombinant human 15-PGDH (Homo sapiens (Human), UniProt P15428)
Assay: 15-PGDH enzyme inhibition test
Assay type: biochemical
Conditions: 4 nM recombinant human 15-PGDH, 30 μM PGE2, 1 mM NAD+, fluorescence 340/440 nm after 60 min
Method: 15-PGDH Enzyme Inhibition Test
Test compounds and 4 nM recombinant human 15-PGDH (R&D systems) in 50 mM Tris-HCl (pH 8.0) containing 0.01% TWEEN 20 (Sigma) and 0.01% bovine gamma globulin (Sigma) were put into 384 Flat Bottom Black plates (Corning, 3820) and allowed to stand for 12 minutes at room temperature. Then, 30 μM PGE2 (Cayman chemical) and 1 mM NAD^+ (Sigma) were added to start reaction. Sixty minutes after the start of reaction, signals were measured at an excitation wavelength of 340 nm and a fluorescence emission wavelength of 440 nm using Synergy 2 (BioTeck). The intensity of the fluorescent signal obtained when an assay buffer was added in place of the test compounds and NAD^+ was defined as 100% and that obtained with the addition of NAD^+ was defined as 0%.

recombinant human 15-PGDH, sequence (P15428 whole entry): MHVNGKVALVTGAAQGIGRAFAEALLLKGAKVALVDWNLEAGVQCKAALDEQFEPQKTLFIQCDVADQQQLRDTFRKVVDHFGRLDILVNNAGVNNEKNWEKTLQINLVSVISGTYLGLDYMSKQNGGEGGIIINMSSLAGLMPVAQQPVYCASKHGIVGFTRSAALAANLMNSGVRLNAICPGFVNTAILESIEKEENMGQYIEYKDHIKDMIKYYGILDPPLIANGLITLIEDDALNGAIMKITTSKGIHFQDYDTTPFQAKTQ

IC50 | Compound
≥ 10 nM | CN1CCC2(CCN(c3cccc4cc(C(=O)N5CCCCC5)ccc34)CC2)C1=O [compound 79]
< 3 nM | O=C(c1ccc2c(-c3ccc4c(=O)[nH]ncc4c3)cccc2c1)N1CCCC1 [compound 80]
< 3 nM | C[C@H]1CCCN(C(=O)c2ccc3c(-c4ccc5c(=O)[nH]ncc5c4)cccc3c2)C1 [compound 81]
< 3 nM | O=C1NCc2cc(-c3cccc4cc(C(=O)N5CCC(F)(F)CC5)ccc34)cnc21 [compound 82]
< 3 nM | Cc1n[nH]c(=O)c2ccc(-c3cccc4cc(C(=O)N5CCC(F)(F)CC5)ccc34)cc12 [compound 83]
< 3 nM | CC1CCN(C(=O)c2ccc3c(-c4ccc5c(=O)[nH]ncc5c4)cccc3c2)CC1 [compound 84]
3 to 10 nM | CN1Cc2cc(-c3c(F)ccc4cc(C(=O)N5CCC(F)(F)CC5)ccc34)cnc2C1=O [compound 85]
< 3 nM | O=C(c1ccc2c(-c3cc4cc[nH]c(=O)c4cn3)c(F)ccc2c1)N1CCC(F)(F)CC1 [compound 86]
< 3 nM | O=C(c1ccc2c(-c3ccc4c(=O)[nH]ncc4c3)c(F)ccc2c1)N1CCC(F)(F)CC1 [compound 87]
< 3 nM | CN1Cc2cc(-c3cccc4cc(C(=O)N5CCC(F)(F)CC5)ccc34)ncc2C1=O [compound 88]
≥ 10 nM | O=C(c1ccc2cc(-c3ccc4c(=O)[nH]ccc4c3)ccc2c1)N1CCC(F)(F)CC1 [compound 89]
3 to 10 nM | Cn1nc2n(c1=O)CCN(c1cccc3cc(C(=O)N4CCCCC4)cnc13)C2 [compound 90]
< 3 nM | C[C@@H]1CCCN(C(=O)c2ccc3c(N4CCc5ncccc5C4)cccc3c2)C1 [compound 91]
< 3 nM | Cn1nc2n(c1=O)CCN(c1cccc3cc(C(=O)N4CCCC5(CC5)C4)ccc13)C2 [compound 92]
< 3 nM | O=C(c1ccc2c(N3CCn4c(nn(CC(F)F)c4=O)C3)cccc2c1)N1CCC[C@H](C(F)(F)F)C1 [compound 93]
< 3 nM | Cn1nc2n(c1=O)CCN(c1cccc3cc(C(=O)N4CCCC5CC54)ccc13)C2 (centres unmarked) [compound 94]
3 to 10 nM | Cn1cnc2c1CCN(c1cccc3cc(C(=O)N4CCCCC4)ccc13)C2 [compound 95]
3 to 10 nM | CN1CC2CN(c3cccc4cc(C(=O)N5CCCCC5)ccc34)CCN2C1=O (centres unmarked) [compound 96]
3 to 10 nM | COC(=O)c1ccc(-c2cccc3cc(C(=O)N4CCC(F)(F)CC4)ccc23)cc1F [compound 97]
< 3 nM | CN1Cc2cc(-c3ccnc4cc(C(=O)N5CCCCC5)ccc34)ccc2C1=O [compound 98]
3 to 10 nM | CN1Cc2cc(-c3cccc4cc(C(=O)N5CCC(F)(F)CC5)cnc34)ccc2C1=O [compound 99]
< 3 nM | Cc1ccc2cc(C(=O)N3CCC(F)(F)CC3)ccc2c1-c1ccc2c(=O)[nH]ncc2c1 [compound 100]
< 3 nM | O=C1NCc2nc(-c3cccc4cc(C(=O)N5CCC(F)(F)CC5)ccc34)ccc21 [compound 101]
3 to 10 nM | O=C(c1ccc2c(-c3cnc4c(=O)[nH]ncc4c3)c(F)ccc2c1)N1CCC(F)(F)CC1 [compound 102]
< 3 nM | C[C@H]1CCCN(C(=O)c2ccc3c(N4CCn5c(nn(C)c5=O)C4)cccc3c2)C1 [compound 103]

IC50 | Compound
< 3 nM | C[C@H]1CCCN(C(=O)c2ccc3c(N4CCn5c(nn(CC(F)F)c5=O)C4)cccc3c2)C1 [compound 104]
< 3 nM | O=C(c1ccc2c(N3CCc4ncccc4C3)cccc2c1)N1CCCC2(CC2)C1 [compound 105]
3 to 10 nM | Cn1nc2n(c1=O)CCN(c1nccc3cc(C(=O)N4CCC(F)(F)CC4)cc(F)c13)C2 [compound 106]
< 3 nM | Cn1ccc2c(c1=O)CCN(c1cccc3cc(C(=O)N4CCCCC4)ccc13)C2 [compound 107]
< 3 nM | C[C@@H]1CCN(C(=O)c2ccc3c(N4CCc5ncccc5C4)cccc3c2)C1 [compound 108]
< 3 nM | O=C(c1ccc2c(-c3ccn4c(=O)[nH]nc4c3)cccc2c1)N1CCCCC1 [compound 109]
< 3 nM | O=C(c1ccc2c(-c3ccc4c(=O)[nH]ccc4c3)cccc2c1)N1CCC(F)(F)CC1 [compound 110]
< 3 nM | O=C(c1ccc2c(-c3cc4cc[nH]c(=O)c4cn3)cccc2c1)N1CCC(F)(F)CC1 [compound 111]
3 to 10 nM | O=C(c1ccc2c(-c3ccc4c(c3)CN(CC3(C(F)(F)F)CC3)C4=O)cccc2c1)N1CCC(F)(F)CC1 [compound 113]
3 to 10 nM | O=C(c1ccc2c(-c3ccc4c[nH]c(=O)cc4c3)cccc2c1)N1CCC(F)(F)CC1 [compound 114]
< 3 nM | Cc1c(-c2cccc3cc(C(=O)N4CCC(F)(F)CC4)ccc23)ccn2c(=O)n(C)nc12 [compound 115]
< 3 nM | Cn1ccc2cc(-c3cccc4cc(C(=O)N5CCC(F)(F)CC5)ccc34)ccc2c1=O [compound 116]
< 3 nM | Cn1ncc2cc(-c3cccc4cc(C(=O)N5CCC(F)(F)CC5)ccc34)ccc2c1=O [compound 117]
< 3 nM | O=C(c1ccc2c(-c3ccc4c(=O)n(CCO)ncc4c3)cccc2c1)N1CCC(F)(F)CC1 [compound 118]
< 3 nM | CC1CN(C(=O)c2ccc3c(-c4ccc5c(=O)[nH]ncc5c4)cccc3c2)CCC1(F)F (centres unmarked) [compound 119]
< 3 nM | CN1Cc2cc(-c3cncc4cc(C(=O)N5CCC(F)(F)CC5)ccc34)ccc2C1=O [compound 120]
< 3 nM | O=C(c1ccc2c(-c3ccc4c(=O)[nH]ncc4c3)cccc2c1)N1CC2(CCC2)C1 [compound 121]
< 3 nM | O=C(c1ccc2c(-c3ccc4c(=O)[nH]ncc4c3)cccc2c1)N1C[C@H]2CCC[C@H]2C1 [compound 122]
< 3 nM | O=C(c1ccc2c(-c3ccc4c(=O)[nH]ncc4c3)cccc2c1)N1CC=CCC1 [compound 123]
< 3 nM | O=C(c1ccc2c(-c3ccc4c(=O)[nH]ncc4c3)cccc2c1)N1CCCC2CC21 (centres unmarked) [compound 124]
< 3 nM | CC1CCN(C(=O)c2ccc3c(-c4cnc5c(c4)CN(C)C5=O)cccc3c2)CC1 [compound 125]
< 3 nM | O=C(O)c1c(F)cc(-c2cccc3cc(C(=O)N4CCC(F)(F)CC4)ccc23)cc1F [compound 126]
< 3 nM | O=C(O)c1ncc(-c2cccc3cc(C(=O)N4CCC(F)(F)CC4)ccc23)cn1 [compound 127]
< 3 nM | O=C(c1ccc2c(-c3cnc4c(=O)[nH]cnc4c3)cccc2c1)N1CCC(F)(F)CC1 [compound 128]
< 3 nM | COCn1nc2cc(-c3cccc4cc(C(=O)N5CCC(F)(F)CC5)ccc34)ccn2c1=O [compound 129]

IC50 | Compound
< 3 nM | O=C(O)c1ncc(-c2cccc3cc(C(=O)N4CCC(F)(F)CC4)ccc23)cc1F [compound 130]
< 3 nM | O=C(c1cnc2c(-c3cnc4c(=O)[nH]ccc4c3)cccc2c1)N1CCC(F)(F)CC1 [compound 132]
3 to 10 nM | O=C(c1cnc2c(-c3cc4cc[nH]c(=O)c4cn3)cccc2c1)N1CCC(F)(F)CC1 [compound 133]
< 3 nM | O=C(c1cnc2c(-c3ccc4c(=O)[nH]ccc4c3)cccc2c1)N1CCC(F)(F)CC1 [compound 134]
< 3 nM | CN1Cc2cc(-c3ccc4ccc(C(=O)N5CCC(F)(F)CC5)cc4c3)ccc2C1=O [compound 138]
< 3 nM | O=C(c1ccc2ccc(-c3ccc4c(=O)[nH]ccc4c3)cc2c1)N1CCC(F)(F)CC1 [compound 139]
< 3 nM | O=C(c1cnc2c(-c3cnc4c(=O)[nH]ncc4c3)cccc2c1)N1CCC(F)(F)CC1 [compound 140]
< 3 nM | O=C(c1cnc2c(-c3ccc4c(=O)[nH]oc4c3)cccc2c1)N1CCC(F)(F)CC1 [compound 141]
< 3 nM | Cn1cnc2cc(-c3cccc4cc(C(=O)N5CCC(F)(F)CC5)ccc34)cnc2c1=O [compound 142]
< 3 nM | Cn1ccc2cc(-c3cccc4cc(C(=O)N5CCC(F)(F)CC5)cnc34)ccc2c1=O [compound 143]
≥ 10 nM | Cn1ccc2cc(-c3cccc4cc(C(=O)N5CCC(F)(F)CC5)cnc34)ncc2c1=O [compound 144]
3 to 10 nM | Cn1ncc2cc(-c3cccc4cc(C(=O)N5CCC(F)(F)CC5)cnc34)cnc2c1=O [compound 145]
3 to 10 nM | Cn1ccc2cc(-c3cccc4cc(C(=O)N5CCC(F)(F)CC5)cnc34)cnc2c1=O [compound 146]
< 3 nM | Cn1ncc2cc(-c3cccc4cc(C(=O)N5CCC(F)(F)CC5)cnc34)ccc2c1=O [compound 147]
3 to 10 nM | Cn1oc2cc(-c3cccc4cc(C(=O)N5CCC(F)(F)CC5)cnc34)ccc2c1=O [compound 148]
< 3 nM | CN1Cc2cc(-c3cccc4cc(C(=O)N5CC6(CCC6)C5)ccc34)cnc2C1=O [compound 150]
< 3 nM | CN1Cc2cc(-c3cccc4cc(C(=O)N5CCCC6CC65)ccc34)cnc2C1=O (centres unmarked) [compound 151]
< 3 nM | CN1Cc2cc(-c3cccc4cc(C(=O)N5CC=CCC5)ccc34)cnc2C1=O [compound 152]
< 3 nM | CN1Cc2cc(-c3cccc4cc(C(=O)N5C[C@H]6CCC[C@H]6C5)ccc34)cnc2C1=O [compound 153]
< 3 nM | CCN(CC)C(=O)c1ccc2c(-c3cnc4c(c3)CN(C)C4=O)cccc2c1 [compound 154]
< 3 nM | CCN(CC)C(=O)c1ccc2c(-c3ccc4c(=O)[nH]ncc4c3)cccc2c1 [compound 155]
3 to 10 nM | CN1Cc2cc(-c3nccc4cc(C(=O)N5CCC(F)(F)CC5)ccc34)ccc2C1=O [compound 156]
3 to 10 nM | Cn1ccc2cc(-c3c(F)ccc4cc(C(=O)N5CCC(F)(F)CC5)ccc34)ncc2c1=O [compound 157]
< 3 nM | Cn1ccc2cc(-c3c(F)ccc4cc(C(=O)N5CCC(F)(F)CC5)ccc34)ccc2c1=O [compound 158]
